Results from PubChem BioAssay AID330 (DTP/NCI, 2004).
“And” between values parts separate entries of the source, which are not always exact repeats. Equal entries are not always repeated. Toxic doses and inconclusive results are not listed. How the source made its calls: active means survival T/C of 150% or more; inactive means T/C below 125% in these data.

Tested on: P388 leukemia ip, CD2F1 mice, survival T/C
Assay: NCI In Vivo Anticancer Drug Screen. Data for tumor model P388 Leukemia (intraperitoneal) in CD2F1 (CDF1) mice
Conditions: endpoint: median survival time, higher = longer survival
In short: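 Mice carrying the transplanted tumor received test compound or vehicle. Survival was recorded in each group, and the value is the treated-group measurement divided by that of the vehicle-treated control group.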

[1] = dose: 50.0 mg/kg/injection, schedule: Q01DX009 (ip), vehicle: saline
[2] = dose: 25.0 mg/kg/injection, schedule: Q01DX009 (ip), vehicle: saline with Tween-80
[3] = dose: 50.0 mg/kg/injection, schedule: Q01DX009 (ip), vehicle: saline with Tween-80
[4] = dose: 100.0 mg/kg/injection, schedule: Q01DX009 (ip), vehicle: saline with Tween-80
[5] = dose: 50.0 mg/kg/injection, schedule: Q01DX005 (ip), vehicle: saline with Tween-80
[6] = dose: 100.0 mg/kg/injection, schedule: Q01DX005 (ip), vehicle: saline with Tween-80
[7] = dose: 200.0 mg/kg/injection, schedule: Q01DX005 (ip), vehicle: saline with Tween-80
[8] = dose: 200.0 mg/kg/injection, schedule: Q01DX009 (ip), vehicle: saline with Tween-80
[9] = dose: 100.0 mg/kg/injection, schedule: Q01DX009 (ip), vehicle: saline
[10] = dose: 200.0 mg/kg/injection, schedule: Q01DX009 (ip), vehicle: saline
[11] = dose: 50.0 mg/kg/injection, schedule: Q01DX005 (ip), vehicle: Klucel (hydroxypropylcellulose) (HPC)
[12] = dose: 100.0 mg/kg/injection, schedule: Q01DX005 (ip), vehicle: Klucel (hydroxypropylcellulose) (HPC)
[13] = dose: 200.0 mg/kg/injection, schedule: Q01DX005 (ip), vehicle: Klucel (hydroxypropylcellulose) (HPC)
[14] = dose: 60.0 mg/kg/injection, schedule: Q01DX005 (ip), vehicle: saline with Tween-80
[15] = dose: 15.0 mg/kg/injection, schedule: Q01DX005 (ip), vehicle: saline with Tween-80

Measured: T/C

CCN(CC)CCCNc1cccc2c(C)cc(OC)nc12
inactive: dose: 12.5 mg/kg/injection, schedule: Q01DX009 (ip), vehicle: saline 92 % of control | dose: 25.0 mg/kg/injection, schedule: Q01DX009 (ip), vehicle: saline 90 % of control | [1] 86 % of control

NC(Cc1ccccc1Br)c1nn[nH]n1 (stereo not drawn)
inactive: [2] 97 % of control | [3] 104 % of control | [4] 114 % of control

CC1CN(Cc2ccccc2)CCC1N1CCCC1 (stereo not drawn)
inactive: [5] 111 % of control | [6] 107 % of control | [7] 109 % of control

CCOC(=O)NNc1nc(-c2ccccc2)nc2nonc12
inactive: [2] 91 % of control | [4] 110 % of control

CCCCCCCCCCCCCCCCCSCc1ccc(Nc2ccccc2)cc1
inactive: [2] 108 % of control | dose: 50.0 mg/kg/injection, schedule: Q01DX009 (ip), vehicle: other 116 % of control | [3] 103 % of control and 108 % of control | dose: 100.0 mg/kg/injection, schedule: Q01DX009 (ip), vehicle: other 116 % of control | [4] 103 % of control | dose: 200.0 mg/kg/injection, schedule: Q01DX009 (ip), vehicle: other 118 % of control | [8] 116 % of control and 93 % of control

O=C1CC2CCC(C1)N2C(=O)Oc1ccccc1
inactive: dose: 100.0 mg/kg/injection, schedule: Q01DX001 (ip), vehicle: Klucel (hydroxypropylcellulose) (HPC) 101 % of control | dose: 200.0 mg/kg/injection, schedule: Q01DX001 (ip), vehicle: Klucel (hydroxypropylcellulose) (HPC) 93 % of control | dose: 400.0 mg/kg/injection, schedule: Q01DX001 (ip), vehicle: Klucel (hydroxypropylcellulose) (HPC) 92 % of control

NCC(=O)O.[Cl][Ga]([Cl])[Cl]
inactive: dose: 66.0 mg/kg/injection, schedule: Q01DX009 (ip), vehicle: saline 110 % of control | [9] 110 % of control | dose: 100.0 mg/kg/injection, schedule: Q04DX003 (ip), vehicle: saline sonified 104 % of control | dose: 150.0 mg/kg/injection, schedule: Q01DX009 (ip), vehicle: saline 120 % of control

CCCCCCC(=O)/C=C/c1ccc(OC(=O)c2ccccc2)cc1
inactive: [1] 97 % of control | [9] 97 % of control | [10] 110 % of control

COc1cc2c(c(OC)c1OC)-c1ccc(=O)c(OC)cc1[C@@H](N(C)C)CC2
inactive: dose: 2.5 mg/kg/injection, schedule: Q01DX009 (ip), vehicle: Klucel (hydroxypropylcellulose) (HPC) 100 % of control | dose: 5.0 mg/kg/injection, schedule: Q01DX009 (ip), vehicle: Klucel (hydroxypropylcellulose) (HPC) 106 % of control | dose: 10.0 mg/kg/injection, schedule: Q01DX009 (ip), vehicle: Klucel (hydroxypropylcellulose) (HPC) 107 % of control | dose: 20.0 mg/kg/injection, schedule: Q01DX009 (ip), vehicle: Klucel (hydroxypropylcellulose) (HPC) 110 % of control | dose: 40.0 mg/kg/injection, schedule: Q01DX009 (ip), vehicle: Klucel (hydroxypropylcellulose) (HPC) 110 % of control

O=C1Nc2ccccc2/C1=N/N1C(=O)c2ccccc2C1=O
inactive: [11] 91 % of control | [12] 92 % of control | [13] 97 % of control

COC(=O)c1cc(-c2ccco2)c2c(=O)n(-c3ccccc3)[nH]c2n1
inactive: [14] 103 % of control | dose: 120.0 mg/kg/injection, schedule: Q01DX005 (ip), vehicle: saline with Tween-80 105 % of control | dose: 240.0 mg/kg/injection, schedule: Q01DX005 (ip), vehicle: saline with Tween-80 94 % of control

CCOc1ccccc1N=Nc1c(C)nn(C(N)=S)c1OCC
inactive: dose: 60.0 mg/kg/injection, schedule: Q01DX005 (ip), vehicle: Klucel (hydroxypropylcellulose) (HPC) 106 % of control | dose: 120.0 mg/kg/injection, schedule: Q01DX005 (ip), vehicle: Klucel (hydroxypropylcellulose) (HPC) 116 % of control | dose: 240.0 mg/kg/injection, schedule: Q01DX005 (ip), vehicle: Klucel (hydroxypropylcellulose) (HPC) 115 % of control

COc1ccc(C(Cl)(c2ccccc2)c2ccc(C(C)=O)cc2)cc1 (stereo not drawn)
inactive: [15] 107 % of control | dose: 30.0 mg/kg/injection, schedule: Q01DX005 (ip), vehicle: saline with Tween-80 101 % of control | [14] 88 % of control and 97 % of control

CC1(C)CN(C(C)(C)C)COC1OC1OCN(C(C)(C)C)CC1(C)C (stereo not drawn)
inactive: dose: 37.5 mg/kg/injection, schedule: Q01DX009 (ip), vehicle: saline with Tween-80 118 % of control | dose: 75.0 mg/kg/injection, schedule: Q01DX009 (ip), vehicle: saline with Tween-80 109 % of control | dose: 150.0 mg/kg/injection, schedule: Q01DX009 (ip), vehicle: saline with Tween-80 119 % of control

CC(=O)OCc1ccc(Cl)c(Cl)c1
inactive: dose: 100.0 mg/kg/injection, schedule: Q04DX003 (ip), vehicle: saline with Tween-80 100 % of control | dose: 200.0 mg/kg/injection, schedule: Q04DX003 (ip), vehicle: saline with Tween-80 100 % of control | dose: 400.0 mg/kg/injection, schedule: Q04DX003 (ip), vehicle: saline with Tween-80 104 % of control

CCOC(=O)CCC1=C(C)c2cc3[n-]c(cc4nc(cc5[n-]c(cc1n2)c(CCC(=O)OCC)c5C)C=C4C)cc3C.[Cu+2]
inactive: [11] 101 % of control | [12] 97 % of control | [13] 100 % of control

CC(=O)C1CC2CN(C(=O)OCC(Cl)(Cl)Cl)C1C=C2c1ccccc1 (stereo not drawn)
inactive: dose: 100.0 mg/kg/injection, schedule: Q04DX002 (ip), vehicle: saline 91 % of control | dose: 200.0 mg/kg/injection, schedule: Q04DX002 (ip), vehicle: saline 94 % of control | dose: 400.0 mg/kg/injection, schedule: Q04DX002 (ip), vehicle: saline 94 % of control

CCCCCCN(CCCCCC)C(C)C(=O)c1ccc2cc(Br)c3ccccc3c2c1 (stereo not drawn)
inactive: [5] 91 % of control | [6] 94 % of control | [7] 94 % of control

Nc1nc(SN=Nc2ccc(S(N)(=O)=O)cc2)c2[nH]cnc2n1
inactive: dose: 7.5 mg/kg/injection, schedule: Q01DX009 (ip), vehicle: saline 118 % of control | dose: 15.0 mg/kg/injection, schedule: Q01DX009 (ip), vehicle: saline 100 % of control

Cc1nn(-c2ccc(Cl)cc2)c2c1c(=O)[nH]c1ccccc12
inactive: dose: 3.75 mg/kg/injection, schedule: Q01DX005 (ip), vehicle: saline with Tween-80 98 % of control | dose: 7.5 mg/kg/injection, schedule: Q01DX005 (ip), vehicle: saline with Tween-80 92 % of control | [15] 87 % of control and 88 % of control | [14] 87 % of control

Nc1cccc(OCCOc2cccc(S(=O)(=O)F)c2)c1
inactive: dose: 50.0 mg/kg/injection, schedule: Q01DX001 (ip), vehicle: saline with Tween-80 109 % of control | dose: 100.0 mg/kg/injection, schedule: Q01DX001 (ip), vehicle: saline with Tween-80 100 % of control | dose: 200.0 mg/kg/injection, schedule: Q01DX001 (ip), vehicle: saline with Tween-80 100 % of control

c1ccc2c(c1)Nc1ccc3ccccc3c1S2
inactive: [2] 98 % of control | [3] 105 % of control | [4] 96 % of control | [8] 108 % of control

CCC(C)C(NC(=O)C(C)NC(=O)OCc1ccccc1)C(=O)O (stereo not drawn)
inactive: [5] 101 % of control | [6] 101 % of control | [7] 100 % of control

ClCC#CCOc1c(Cl)cccc1Cl
inactive: [1] 86 % of control | [9] 92 % of control | [10] 98 % of control

CN(C)S(=O)(=O)c1ccccc1N=C=S
inactive: [3] 117 % of control | [4] 117 % of control

CC1=C(C)C(N2CCOCC2)CS(=O)(=O)O1 (stereo not drawn)
inactive: [11] 109 % of control | [12] 101 % of control
